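Interpolation was linear, between the two tested concentrations surrounding the appropriate level; five concentrations were tested over 48 hours in 96-well plates. GI50 = concentration required for 50% inhibition of growth.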 The source made the active and inactive calls. Rule as the data show it: active = GI50 up to about 1.1 µM and inactive = higher.
Key:
Test in all cases: inhibition of tumour cell growth, NCI panel, 48 h
DLD-1 = test system: DLD-1
M14 = test system: M14
CAKI-1 = test system: CAKI-1
TK-10 = test system: TK-10
HL-60 = test system: HL-60
NCI-H460 = test system: NCI-H460
LXFL 529 = test system: LXFL 529
NCI-H226 = test system: NCI-H226
SNB-19 = test system: SNB-19
Malme-3M = test system: Malme-3M
SW-620 = test system: SW-620
CCRF-CEM = test system: CCRF-CEM
DMS-273 = test system: DMS-273
EKVX = test system: EKVX
IGROV-1 = test system: IGROV-1
HCT-116 = test system: HCT-116
SF-268 = test system: SF-268
SR = test system: SR
SK-OV-3 = test system: SK-OV-3
UO-31 = test system: UO-31
HOP-62 = test system: HOP-62
M19-MEL = test system: M19-MEL
OVCAR-8 = test system: OVCAR-8
SN12C = test system: SN12C
A549 = test system: A549
SNB-78 = test system: SNB-78
SF-539 = test system: SF-539
U-251 = test system: U-251
LOX IMVI = test system: LOX IMVI
KM12 = test system: KM12
NCI-H23 = test system: NCI-H23
SNB-75 = test system: SNB-75
SK-MEL-5 = test system: SK-MEL-5
MOLT-4 = test system: MOLT-4
OVCAR-5 = test system: OVCAR-5
RXF 631 = test system: RXF 631
K562 = test system: K562
HCC 2998 = test system: HCC 2998
UACC-62 = test system: UACC-62
SF-295 = test system: SF-295
RPMI-8226 = test system: RPMI-8226
786-0 = test system: 786-0
UACC-257 = test system: UACC-257
HOP-18 = test system: HOP-18
XF498 = test system: XF498
HT-29 = test system: HT-29
KM-20L2 = test system: KM-20L2
COLO 205 = test system: COLO 205
ACHN = test system: ACHN
A498 = test system: A498
SK-MEL-2 = test system: SK-MEL-2
OVCAR-4 = test system: OVCAR-4
NCI-H522 = test system: NCI-H522
DMS-114 = test system: DMS-114
OVCAR-3 = test system: OVCAR-3
HCT-15 = test system: HCT-15
SK-MEL-28 = test system: SK-MEL-28
RXF 393 = test system: RXF 393
HOP-92 = test system: HOP-92

Measured: GI50

Oc1ccc([Te]CCNCC[Te]c2ccc(O)cc2)cc1
inactive: DLD-1 23 µM | M14 17.6 µM | CAKI-1 30.5 µM | TK-10 30.3 µM | HL-60 5.55 µM | NCI-H460 4.67 µM | LXFL 529 3.41 µM | NCI-H226 21.3 µM | SNB-19 40.9 µM | Malme-3M 22.6 µM | SW-620 23.1 µM | CCRF-CEM 2.97 µM | DMS-273 18.2 µM | EKVX 3.56 µM | IGROV-1 27.9 µM | HCT-116 5.96 µM | SF-268 11.1 µM | SR 5.19 µM | SK-OV-3 25 µM | UO-31 9.2 µM | HOP-62 18.2 µM | M19-MEL 7.29 µM | OVCAR-8 16.3 µM | SN12C 9.82 µM | A549 3.66 µM | SNB-78 22 µM | SF-539 > 10 µM | U-251 6.22 µM | LOX IMVI 12.5 µM | KM12 15 µM | NCI-H23 4.78 µM | SNB-75 6.55 µM | SK-MEL-5 11.9 µM | MOLT-4 4.49 µM | OVCAR-5 16 µM | RXF 631 6.05 µM | K562 10 µM | HCC 2998 12.8 µM | UACC-62 17 µM | SF-295 4.32 µM | RPMI-8226 16.4 µM | 786-0 28.7 µM | UACC-257 36 µM | HOP-18 26.4 µM | XF498 5.11 µM | HT-29 15.6 µM | KM-20L2 14.4 µM | COLO 205 7.13 µM | ACHN 20.1 µM | A498 13.4 µM

O=C1C=CC2(CCC23C=CC(=O)O3)O1 (configuration not stated)
inactive: DLD-1 > 100 µM | SK-MEL-2 > 100 µM | M14 > 100 µM | TK-10 > 100 µM | HL-60 74.8 µM | OVCAR-4 > 100 µM | NCI-H460 > 100 µM | LXFL 529 81.3 µM | NCI-H226 > 100 µM | SNB-19 > 100 µM | NCI-H522 51.6 µM | Malme-3M > 100 µM | DMS-114 > 100 µM | SW-620 94.6 µM | CCRF-CEM 86.5 µM | EKVX > 100 µM | IGROV-1 > 100 µM | HCT-116 > 100 µM | SF-268 > 100 µM | SK-OV-3 > 100 µM | UO-31 > 100 µM | OVCAR-3 > 100 µM | HOP-62 > 100 µM | M19-MEL > 100 µM | OVCAR-8 > 100 µM | SN12C > 100 µM | A549 > 100 µM | SNB-78 > 100 µM | SF-539 > 100 µM | U-251 > 100 µM | LOX IMVI > 100 µM | KM12 > 100 µM | NCI-H23 > 100 µM | SNB-75 > 100 µM | MOLT-4 > 100 µM | OVCAR-5 > 100 µM | RXF 631 71 µM | K562 > 100 µM | HCC 2998 > 100 µM | UACC-62 > 100 µM | SF-295 > 100 µM | RPMI-8226 > 100 µM | 786-0 > 100 µM | UACC-257 > 100 µM | HOP-18 > 100 µM | SK-MEL-28 > 100 µM | XF498 > 100 µM | HT-29 > 100 µM | KM-20L2 > 100 µM | COLO 205 > 100 µM | ACHN > 100 µM | A498 > 100 µM | RXF 393 > 100 µM
> 100 µM: HCT-15

O=C1/C(=C/c2ccc(C(=O)O)cc2)CNC/C1=C\c1ccc(C(=O)O)cc1
inactive: DLD-1 > 100 µM | M14 > 100 µM | TK-10 > 100 µM | HL-60 > 100 µM | OVCAR-4 > 100 µM | NCI-H460 > 100 µM | LXFL 529 > 100 µM | NCI-H226 > 100 µM | Malme-3M > 100 µM | DMS-114 > 100 µM | CCRF-CEM > 100 µM | DMS-273 > 100 µM | IGROV-1 > 100 µM | HCT-116 > 100 µM | SF-268 > 100 µM | SR > 100 µM | SK-OV-3 > 100 µM | UO-31 > 100 µM | OVCAR-3 > 100 µM | HOP-62 > 100 µM | M19-MEL > 100 µM | OVCAR-8 > 100 µM | SN12C > 100 µM | A549 > 100 µM | SNB-78 > 100 µM | SF-539 > 100 µM | U-251 > 100 µM | HOP-92 > 100 µM | KM12 > 100 µM | NCI-H23 > 100 µM | SNB-75 > 100 µM | SK-MEL-5 > 100 µM | MOLT-4 > 100 µM | OVCAR-5 > 100 µM | RXF 631 > 100 µM | K562 > 100 µM | HCC 2998 > 100 µM | UACC-62 > 100 µM | SF-295 > 100 µM | RPMI-8226 > 100 µM | 786-0 > 100 µM | UACC-257 > 100 µM | HOP-18 > 100 µM | SK-MEL-28 > 100 µM | XF498 > 100 µM | HT-29 > 100 µM | KM-20L2 > 100 µM | COLO 205 > 100 µM | ACHN > 100 µM | A498 > 100 µM | RXF 393 > 100 µM
> 100 µM: HCT-15

COc1ccc(C[C@H](N)C(=O)NC2C(CO)OC(n3cnc4c(N(C)C)ncnc43)C2O)cc1 (some centres not stated)
active: DLD-1 1.11 µM | SK-MEL-2 0.415 µM | M14 0.378 µM | TK-10 0.67 µM | HL-60 0.141 µM | OVCAR-4 0.389 µM | NCI-H460 0.255 µM | LXFL 529 0.121 µM | NCI-H226 0.174 µM | Malme-3M 0.524 µM | DMS-114 0.17 µM | SW-620 0.143 µM | CCRF-CEM 0.145 µM | DMS-273 0.258 µM | EKVX 0.202 µM | IGROV-1 0.451 µM | HCT-116 0.115 µM | SF-268 0.354 µM | SR 0.138 µM | SK-OV-3 0.395 µM | OVCAR-3 0.273 µM | HOP-62 0.427 µM | M19-MEL 0.296 µM | OVCAR-8 0.182 µM | SN12C 0.178 µM | A549 0.492 µM | SNB-78 0.213 µM | U-251 0.0297 µM | HOP-92 0.196 µM | LOX IMVI 0.112 µM | KM12 0.262 µM | NCI-H23 0.161 µM | SNB-75 0.0807 µM | SK-MEL-5 0.234 µM | MOLT-4 0.13 µM | RXF 631 1 µM | K562 0.133 µM | HCC 2998 0.29 µM | UACC-62 0.152 µM | SF-295 0.34 µM | RPMI-8226 0.22 µM | 786-0 0.695 µM | UACC-257 0.358 µM | SK-MEL-28 0.187 µM | XF498 0.0458 µM | HT-29 0.262 µM | KM-20L2 0.513 µM | COLO 205 0.154 µM | ACHN 1.01 µM | A498 1.04 µM | RXF 393 0.261 µM
inactive: UO-31 2.68 µM | OVCAR-5 5.31 µM | HOP-18 2.13 µM
2.86 µM: HCT-15

O=C1OC(c2ccccc2)=N/C1=C/NC(CO)C(=O)O (configuration not stated)
inactive: DLD-1 > 100 µM | SK-MEL-2 > 100 µM | M14 > 100 µM | CAKI-1 > 100 µM | TK-10 > 100 µM | HL-60 > 100 µM | OVCAR-4 > 100 µM | NCI-H460 > 100 µM | LXFL 529 > 100 µM | NCI-H226 > 100 µM | SNB-19 48.9 µM | NCI-H522 > 100 µM | Malme-3M > 100 µM | DMS-114 > 100 µM | SW-620 > 100 µM | CCRF-CEM > 100 µM | DMS-273 > 100 µM | EKVX > 100 µM | IGROV-1 67.1 µM | HCT-116 > 100 µM | SF-268 > 100 µM | SK-OV-3 > 100 µM | UO-31 > 100 µM | OVCAR-3 > 100 µM | HOP-62 > 100 µM | M19-MEL > 100 µM | OVCAR-8 > 100 µM | A549 > 100 µM | SNB-78 > 100 µM | SF-539 > 100 µM | U-251 > 100 µM | HOP-92 > 100 µM | LOX IMVI > 100 µM | KM12 > 100 µM | NCI-H23 > 100 µM | SNB-75 > 100 µM | SK-MEL-5 > 100 µM | OVCAR-5 > 100 µM | RXF 631 > 100 µM | K562 > 100 µM | HCC 2998 > 100 µM | UACC-62 > 100 µM | SF-295 > 100 µM | RPMI-8226 > 100 µM | 786-0 > 100 µM | UACC-257 > 100 µM | HOP-18 45.6 µM | SK-MEL-28 > 100 µM | XF498 > 100 µM | HT-29 > 100 µM | KM-20L2 > 100 µM | COLO 205 > 100 µM | ACHN > 100 µM | A498 > 100 µM | RXF 393 > 100 µM
> 100 µM: HCT-15

From ChEMBL document CHEMBL1201862, “PubChem BioAssay data set” (2004)
